From patent publication US20230310428A1, “EGFR INHIBITOR AND PREPARATION METHOD AND USE THEREOF” (HONGYUN BIOTECH CO., LTD., priority 2020, published 2023) come the findings set out here.

Experiment in all cases: Growth inhibitory activity of compounds on BaF3 cell lines stably transfected with kinase (MTS, 48 h)
Type in all cases: cell-based

Test [1] has as its target T1, various mutants of kinase EGFR (BaF3 cell lines stably transfected with kinase) (Homo sapiens, UniProt P00533).
T1 construct: other: BaF3 cells stably transfected with EGFR Δ19Del; MTS, 48 h; other: BaF3 cell line stably transfected with EGFR Δ19Del
The following applies: BaF3 cell line stably transfected with EGFR Δ19Del, read-out: Δ19Del growth inhibitory activity IC50. In a few lines:
(§1)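 OD at 490 nm after 1-4 h MTS/PES incubation gave growth inhibition relative to 0.1% DMSO negative and cell-free medium blank. Compounds: 8-point 1/3 dilution from 10 µM, 48 h, 37 °C. IC50 from inhibition curves; duplicates.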

In test [2] the target is T2, various mutants of kinase EGFR (BaF3 cell lines stably transfected with kinase) (Homo sapiens, UniProt P00533, C797S/L858R/T790M).
T2 construct: expressed in transfected cells; host or cells: BaF3
T2 sequence (P00533 25-1210 T790M/C797S/L858R): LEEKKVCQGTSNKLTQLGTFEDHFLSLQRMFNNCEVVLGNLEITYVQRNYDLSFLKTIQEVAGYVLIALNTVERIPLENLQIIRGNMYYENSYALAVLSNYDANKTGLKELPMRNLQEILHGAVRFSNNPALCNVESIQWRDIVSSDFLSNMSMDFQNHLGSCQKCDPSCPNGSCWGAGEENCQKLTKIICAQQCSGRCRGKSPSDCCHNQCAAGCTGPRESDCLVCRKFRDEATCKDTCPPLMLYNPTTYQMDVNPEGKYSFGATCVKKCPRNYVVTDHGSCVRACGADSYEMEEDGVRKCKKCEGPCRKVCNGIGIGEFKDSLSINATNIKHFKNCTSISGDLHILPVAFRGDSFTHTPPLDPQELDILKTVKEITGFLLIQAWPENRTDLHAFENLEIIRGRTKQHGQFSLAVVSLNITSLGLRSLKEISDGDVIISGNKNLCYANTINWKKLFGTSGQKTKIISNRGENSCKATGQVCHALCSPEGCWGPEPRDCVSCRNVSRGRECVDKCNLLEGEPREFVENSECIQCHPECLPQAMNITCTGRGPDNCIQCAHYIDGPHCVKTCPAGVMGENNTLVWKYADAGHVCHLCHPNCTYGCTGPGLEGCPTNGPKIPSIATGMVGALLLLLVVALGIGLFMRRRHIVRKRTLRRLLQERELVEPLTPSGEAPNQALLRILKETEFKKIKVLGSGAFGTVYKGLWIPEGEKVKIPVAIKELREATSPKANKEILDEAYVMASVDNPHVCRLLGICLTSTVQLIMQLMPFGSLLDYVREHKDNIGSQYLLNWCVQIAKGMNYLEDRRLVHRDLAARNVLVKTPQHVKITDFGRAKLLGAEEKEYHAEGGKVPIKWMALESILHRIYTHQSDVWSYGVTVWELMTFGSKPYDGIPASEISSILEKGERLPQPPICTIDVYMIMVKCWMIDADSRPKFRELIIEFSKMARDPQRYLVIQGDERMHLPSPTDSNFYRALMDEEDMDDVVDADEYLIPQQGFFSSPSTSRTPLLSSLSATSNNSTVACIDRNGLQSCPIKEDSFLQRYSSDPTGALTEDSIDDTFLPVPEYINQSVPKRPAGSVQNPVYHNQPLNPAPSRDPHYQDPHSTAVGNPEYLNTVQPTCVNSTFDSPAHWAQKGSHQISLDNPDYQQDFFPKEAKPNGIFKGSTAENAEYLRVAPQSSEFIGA
The settings on record: BaF3 cell line stably transfected with EGFR L858R/T790M/C797S, read-out: L858R/T790M/ C797S growth inhibitory activity IC50. In a few lines: as §1

Test [3] deals with T3, various mutants of kinase EGFR (BaF3 cell lines stably transfected with kinase) (Homo sapiens, UniProt P00533, L858R).
T3 construct: expressed in transfected cells; host or cells: BaF3
The settings on record: BaF3 cell line stably transfected with EGFR L858R, read-out: L858R growth inhibitory activity IC50. An outline of the steps:
as §1

The target of test [4] is T4, various mutants of kinase EGFR (BaF3 cell lines stably transfected with kinase) (Homo sapiens, UniProt P00533, L858R/T790M).
T4 construct: expressed in transfected cells; host or cells: BaF3
T4 sequence (P00533 25-1210 T790M/L858R): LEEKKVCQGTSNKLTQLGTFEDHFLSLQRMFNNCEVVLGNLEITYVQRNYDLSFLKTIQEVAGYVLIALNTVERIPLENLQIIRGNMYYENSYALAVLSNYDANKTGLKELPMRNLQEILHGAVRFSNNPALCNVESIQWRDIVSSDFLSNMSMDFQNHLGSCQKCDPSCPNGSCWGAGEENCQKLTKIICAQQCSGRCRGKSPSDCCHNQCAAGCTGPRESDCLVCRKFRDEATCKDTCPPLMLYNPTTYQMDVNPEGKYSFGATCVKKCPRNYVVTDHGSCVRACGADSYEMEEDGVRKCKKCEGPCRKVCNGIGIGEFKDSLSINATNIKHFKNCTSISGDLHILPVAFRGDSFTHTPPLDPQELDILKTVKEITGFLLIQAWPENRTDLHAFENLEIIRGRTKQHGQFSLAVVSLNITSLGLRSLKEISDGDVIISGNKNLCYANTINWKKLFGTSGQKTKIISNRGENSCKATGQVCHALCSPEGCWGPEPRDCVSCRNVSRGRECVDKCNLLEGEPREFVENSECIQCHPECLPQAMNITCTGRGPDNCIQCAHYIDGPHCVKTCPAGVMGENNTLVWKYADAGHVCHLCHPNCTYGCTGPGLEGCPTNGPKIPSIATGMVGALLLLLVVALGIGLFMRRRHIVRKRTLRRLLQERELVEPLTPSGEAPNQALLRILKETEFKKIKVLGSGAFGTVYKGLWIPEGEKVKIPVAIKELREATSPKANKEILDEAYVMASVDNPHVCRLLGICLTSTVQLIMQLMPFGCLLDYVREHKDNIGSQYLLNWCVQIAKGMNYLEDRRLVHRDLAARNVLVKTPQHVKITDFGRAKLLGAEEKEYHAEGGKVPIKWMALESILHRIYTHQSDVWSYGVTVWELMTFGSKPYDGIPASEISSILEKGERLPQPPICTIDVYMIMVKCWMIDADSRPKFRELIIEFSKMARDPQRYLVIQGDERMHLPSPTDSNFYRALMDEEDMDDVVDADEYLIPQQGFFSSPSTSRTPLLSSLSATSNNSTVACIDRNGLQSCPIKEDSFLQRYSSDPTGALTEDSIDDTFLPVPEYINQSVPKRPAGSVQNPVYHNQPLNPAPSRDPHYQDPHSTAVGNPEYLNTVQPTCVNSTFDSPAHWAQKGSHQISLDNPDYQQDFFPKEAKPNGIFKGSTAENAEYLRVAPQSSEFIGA
The settings on record: BaF3 cell line stably transfected with EGFR L858R/T790M, read-out: L858R/ T790M growth inhibitory activity IC50. An outline of the steps:
as §1

In test [5] the target is T5, various mutants of kinase EGFR (BaF3 cell lines stably transfected with kinase) (Homo sapiens, UniProt P00533, T790M/C797S, form not given).
T5 construct: other: BaF3 cells stably transfected with EGFR Δ19Del/T790M/C797S; MTS, 48; other: BaF3 cell line stably transfected with EGFR Δ19Del/T790M/C7
T5 sequence (P00533 with tags, fused parts or gaps DEL746-750/T790M/C797S, form open): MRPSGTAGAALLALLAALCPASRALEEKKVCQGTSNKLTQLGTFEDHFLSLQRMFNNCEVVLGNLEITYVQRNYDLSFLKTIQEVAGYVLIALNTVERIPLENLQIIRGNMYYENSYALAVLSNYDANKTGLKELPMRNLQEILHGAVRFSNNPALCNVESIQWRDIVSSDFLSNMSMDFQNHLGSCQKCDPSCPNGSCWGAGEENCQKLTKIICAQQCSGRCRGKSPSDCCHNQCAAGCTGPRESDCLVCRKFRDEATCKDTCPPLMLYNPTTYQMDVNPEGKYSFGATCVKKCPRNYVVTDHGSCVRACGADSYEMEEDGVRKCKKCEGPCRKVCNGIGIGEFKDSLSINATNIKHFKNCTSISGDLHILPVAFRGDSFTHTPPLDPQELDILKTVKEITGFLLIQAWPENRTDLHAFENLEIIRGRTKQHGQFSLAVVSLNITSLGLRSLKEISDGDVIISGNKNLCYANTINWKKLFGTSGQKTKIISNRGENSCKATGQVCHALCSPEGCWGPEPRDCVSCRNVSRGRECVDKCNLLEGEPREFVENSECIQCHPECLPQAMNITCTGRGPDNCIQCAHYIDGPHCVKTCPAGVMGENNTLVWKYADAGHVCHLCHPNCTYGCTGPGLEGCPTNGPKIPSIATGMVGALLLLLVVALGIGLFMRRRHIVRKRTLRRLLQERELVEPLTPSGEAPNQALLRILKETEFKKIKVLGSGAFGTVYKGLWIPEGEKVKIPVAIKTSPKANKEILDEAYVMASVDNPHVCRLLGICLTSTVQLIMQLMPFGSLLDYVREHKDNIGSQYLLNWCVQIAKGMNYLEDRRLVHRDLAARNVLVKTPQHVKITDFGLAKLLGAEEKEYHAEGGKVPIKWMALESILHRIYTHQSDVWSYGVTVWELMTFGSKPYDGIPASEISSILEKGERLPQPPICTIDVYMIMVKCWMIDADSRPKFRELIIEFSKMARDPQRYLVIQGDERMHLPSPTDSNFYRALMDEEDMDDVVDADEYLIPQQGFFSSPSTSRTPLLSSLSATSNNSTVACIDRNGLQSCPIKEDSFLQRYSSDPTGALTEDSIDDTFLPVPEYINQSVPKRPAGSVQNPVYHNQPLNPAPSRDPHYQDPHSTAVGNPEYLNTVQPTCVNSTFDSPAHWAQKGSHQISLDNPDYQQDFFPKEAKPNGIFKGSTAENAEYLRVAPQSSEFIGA
The settings on record: BaF3 cell line stably transfected with EGFR Δ19Del/T790M/C797S, read-out: Δ19Del/T790M/ C797S growth inhibitory activity IC50. An outline of the steps: as §1

Test [6] addresses T6, various mutants of kinase EGFR (BaF3 cell lines stably transfected with kinase) (Homo sapiens, UniProt P00533, T790M, form not given).
T6 construct: other: BaF3 cells stably transfected with EGFR Δ19Del/T790M; MTS, 48 h; other: BaF3 cell line stably transfected with EGFR Δ19Del/T790M; MTS, 48
The following applies: BaF3 cell line stably transfected with EGFR Δ19Del/T790M, read-out: Δ19Del/ T790M growth inhibitory activity IC50. In a few lines:
as §1

pIC50: −log10 of the molar value.

T1 sequence (P00533 with tags, fused parts or gaps DEL746-750): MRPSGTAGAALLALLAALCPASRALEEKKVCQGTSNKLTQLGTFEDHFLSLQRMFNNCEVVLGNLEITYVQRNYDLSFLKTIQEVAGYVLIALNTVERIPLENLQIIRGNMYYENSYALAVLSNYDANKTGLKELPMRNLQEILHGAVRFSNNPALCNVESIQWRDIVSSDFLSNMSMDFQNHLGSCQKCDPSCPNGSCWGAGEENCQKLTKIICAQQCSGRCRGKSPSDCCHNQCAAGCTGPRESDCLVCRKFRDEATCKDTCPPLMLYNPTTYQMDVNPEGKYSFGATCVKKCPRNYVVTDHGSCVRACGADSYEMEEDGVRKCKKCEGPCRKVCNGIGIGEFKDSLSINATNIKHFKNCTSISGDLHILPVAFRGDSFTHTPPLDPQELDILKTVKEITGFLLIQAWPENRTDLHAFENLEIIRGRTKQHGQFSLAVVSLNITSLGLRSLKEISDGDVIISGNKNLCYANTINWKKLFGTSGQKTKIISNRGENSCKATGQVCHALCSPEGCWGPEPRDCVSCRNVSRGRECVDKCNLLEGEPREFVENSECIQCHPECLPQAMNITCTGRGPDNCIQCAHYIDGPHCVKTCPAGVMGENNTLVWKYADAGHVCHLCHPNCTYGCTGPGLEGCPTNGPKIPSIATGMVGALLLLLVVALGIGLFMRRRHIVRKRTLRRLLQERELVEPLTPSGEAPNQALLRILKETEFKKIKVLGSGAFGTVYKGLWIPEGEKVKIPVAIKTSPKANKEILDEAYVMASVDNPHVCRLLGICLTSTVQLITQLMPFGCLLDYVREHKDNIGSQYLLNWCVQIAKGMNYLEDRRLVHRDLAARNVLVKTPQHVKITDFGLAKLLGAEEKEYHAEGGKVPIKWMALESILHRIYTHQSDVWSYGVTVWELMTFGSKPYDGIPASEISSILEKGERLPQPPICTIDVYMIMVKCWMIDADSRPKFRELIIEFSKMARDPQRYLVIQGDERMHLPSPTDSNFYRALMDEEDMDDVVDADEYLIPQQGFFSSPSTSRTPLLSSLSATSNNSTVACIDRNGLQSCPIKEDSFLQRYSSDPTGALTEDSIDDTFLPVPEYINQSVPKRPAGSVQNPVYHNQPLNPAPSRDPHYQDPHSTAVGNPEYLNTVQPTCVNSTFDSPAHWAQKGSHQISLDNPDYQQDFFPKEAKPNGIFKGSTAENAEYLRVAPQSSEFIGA

As for `CCc1cc(Nc2nc(Nc3ccc4nccnc4c3N(C)S(C)(=O)=O)c3[nH]ccc3n2)c(OC)cc1N1CCC(N(C)C)CC1` [II-1-32], the pIC50 was 5.60 to 6.30 in test [1]; 6.30 to 7.30 in test [2]; 5.60 to 6.30 in test [3]; 6.30 to 7.30 in test [4]; 6.30 to 7.30 in test [5]; 5.60 to 6.30 in test [6].
For the compound `COc1cc(N2CCN(C)CC2)c(C)cc1Nc1nc(Nc2ccc3nccnc3c2N(C)S(C)(=O)=O)c2[nH]ccc2n1` [II-1-33], the pIC50 in test [1], in test [2], in test [3], in test [4], in test [5] and in test [6] was 5.60 to 6.30 in each case.
On to `CCc1cc(Nc2nc(Nc3ccc4nccnc4c3N(C)S(C)(=O)=O)c3[nH]ccc3n2)c(OC)cc1N1CCN(C)CC1` [II-1-34], for which the pIC50 in test [1] was 5.60 to 6.30; in test [2] it was 5.60 to 6.30; in test [3], 5.60 to 6.30; in test [4], 5.60 to 6.30; in test [5] it was 6.30 to 7.30; in test [6], 6.30 to 7.30.
As for `COc1cc(N2CCC(N(C)C)C2)c(C)cc1Nc1nc(Nc2ccc3nccnc3c2N(C)S(C)(=O)=O)c2[nH]ccc2n1` (stereo not drawn) [II-1-35], the pIC50 in test [1], in test [2], in test [3], in test [4], in test [5] and in test [6] was 5.60 to 6.30 each time.
For `CCc1cc(Nc2nc(Nc3ccc4nccnc4c3N(C)S(C)(=O)=O)c3[nH]ccc3n2)c(OC)cc1N1CCC(N(C)C)C1` (stereo not drawn) [II-1-36], the pIC50 in test [1], in test [2], in test [3], in test [4], in test [5] and in test [6] was 5.60 to 6.30 in each case.
On to `CCc1cc(Nc2nc(Nc3ccc4nccnc4c3N(C)S(C)(=O)=O)c3occc3n2)c(OC)nc1N1CCC(N2CCN(C)CC2)CC1` [II-1-39], for which the pIC50 in test [1] was 5.60 to 6.30; in test [2], 6.30 to 7.30; in test [3], 5.60 to 6.30; in test [4], 6.30 to 7.30; in test [5] it was not below 7.30; in test [6], 6.30 to 7.30.
Take `CN1CCN(C2CCN(c3ccc(Nc4nc(Nc5ccc6nccnc6c5N(C)S(C)(=O)=O)c5occc5n4)c(OC(F)(F)F)c3)CC2)CC1` [II-1-40]: the pIC50 is 5.60 to 6.30 in test [1]; 5.60 to 6.30 in test [2]; 5.60 to 6.30 in test [3]; 5.60 to 6.30 in test [4]; 5.60 to 6.30 in test [5]; 6.30 to 7.30 in test [6].
`CCc1cc(Nc2nc(Nc3ccc4nccnc4c3N(C)S(C)(=O)=O)c3occc3n2)c(OC(F)(F)F)cc1N1CCC(N2CCN(C)CC2)CC1` [II-1-41]: the pIC50 is 5.60 to 6.30 in test [1]; 6.30 to 7.30 in test [2]; 6.30 to 7.30 in test [3]; 5.60 to 6.30 in test [4]; 6.30 to 7.30 in test [5]; 5.60 to 6.30 in test [6].
Take `C=Cc1cc(Nc2nc(Nc3ccc4nccnc4c3N(C)S(C)(=O)=O)c3occc3n2)c(OC(F)(F)F)cc1N1CCC(N2CCN(C)CC2)CC1` [II-1-42]: the pIC50 in test [1], in test [2], in test [3], in test [4], in test [5] and in test [6] was 6.30 to 7.30 in each case.
With `COc1cc(N2CCC(N3CCN(C)CC3)CC2)c(CC2CC2)cc1Nc1nc(Nc2ccc3nccnc3c2N(C)S(C)(=O)=O)c2occc2n1` [II-1-43], the pIC50 in test [1] was 5.60 to 6.30; in test [2] it was 6.30 to 7.30; in test [3], 6.30 to 7.30; in test [4] it was 6.30 to 7.30; in test [5] it was 6.30 to 7.30; in test [6] it was 5.60 to 6.30.
As for `COc1cc(N2CCC(N3CCN(C)CC3)CC2)c(Cc2ccccc2)cc1Nc1nc(Nc2ccc3nccnc3c2N(C)S(C)(=O)=O)c2occc2n1` [II-1-44], the pIC50 in test [1] is 5.60 to 6.30; in test [2] it was 5.60 to 6.30; in test [3], 5.60 to 6.30; in test [4], 5.60 to 6.30; in test [5], 5.60 to 6.30; in test [6], 6.30 to 7.30.
On to `COc1ccc(N2CCC(O)CC2)cc1Nc1nc(Nc2ccc3nccnc3c2N(C)S(C)(=O)=O)c2sccc2n1` [II-1-45], for which the pIC50 in test [1] is 5.60 to 6.30; in test [2] it was 6.30 to 7.30; in test [3], 6.30 to 7.30; in test [4], 6.30 to 7.30; in test [5], not below 7.30; in test [6] it was 6.30 to 7.30.
For `COc1cc(N2CCC(N3CCN(C)CC3)CC2)c(C)cc1Nc1nc(Nc2ccc3nccnc3c2N(C)S(C)(=O)=O)c2ccsc2n1` [II-2-1], the pIC50 in test [1] is 5.60 to 6.30; in test [2], 5.60 to 6.30; in test [3], 5.60 to 6.30; in test [4] it was 5.60 to 6.30; in test [5], 6.30 to 7.30; in test [6], 5.60 to 6.30.
In the case of `CCc1cc(Nc2nc(Nc3ccc4nccnc4c3N(C)S(C)(=O)=O)c3ccsc3n2)c(OC(F)(F)F)cc1N1CCC(N2CCN(C)CC2)CC1` [II-2-4], the pIC50 in test [1], in test [2], in test [3], in test [4], in test [5] and in test [6] was 5.60 to 6.30 throughout.
In the case of `COc1cc(N2CCC(N3CCN(C)CC3)CC2)c(C)cc1Nc1nc(Nc2ccc3nccnc3c2N(C)S(C)(=O)=O)c2cc[nH]c2n1` [II-2-5], the pIC50 in test [1] was 6.30 to 7.30; in test [2] it was not below 7.30; in test [3], 6.30 to 7.30; in test [4], not below 7.30; in test [5] it was not below 7.30; in test [6], not below 7.30.
`CCc1cc(Nc2nc(Nc3ccc4nccnc4c3N(C)S(C)(=O)=O)c3cc[nH]c3n2)c(OC)nc1N1CCC(N2CCN(C)CC2)CC1` [II-2-7]: the pIC50 in test [1] was 6.30 to 7.30; in test [2], not below 7.30; in test [3], 6.30 to 7.30; in test [4] it was not below 7.30; in test [5], not below 7.30; in test [6] it was not below 7.30.
Turning to `CCc1cc(Nc2nc(Nc3ccc4nccnc4c3N(C)S(C)(=O)=O)c3cc[nH]c3n2)c(OC(F)(F)F)cc1N1CCC(N2CCN(C)CC2)CC1` [II-2-8], the pIC50 is 6.30 to 7.30 in test [1]; not below 7.30 in test [2]; 6.30 to 7.30 in test [3]; 6.30 to 7.30 in test [4]; not below 7.30 in test [5]; not below 7.30 in test [6].
`C=Cc1cc(Nc2nc(Nc3ccc4nccnc4c3N(C)S(C)(=O)=O)c3cc[nH]c3n2)c(OC(F)(F)F)cc1N1CCC(N2CCN(C)CC2)CC1` [II-2-9]: the pIC50 is 6.30 to 7.30 in test [1]; not below 7.30 in test [2]; 6.30 to 7.30 in test [3]; not below 7.30 in test [4]; not below 7.30 in test [5]; not below 7.30 in test [6].
For `COc1cc(N2CCN(C)CC2)c(C)cc1Nc1nc(Nc2ccc3nccnc3c2N(C)S(C)(=O)=O)c2cc[nH]c2n1` [II-2-12], the pIC50 in test [1] is 6.30 to 7.30; in test [2], not below 7.30; in test [3] it was 6.30 to 7.30; in test [4], not below 7.30; in test [5] it was not below 7.30; in test [6], not below 7.30.
As for `CCc1cc(Nc2nc(Nc3ccc4nccnc4c3N(C)S(C)(=O)=O)c3cc[nH]c3n2)c(OC)cc1N1CCC(N(C)C)C1` (stereo not drawn) [II-2-17], the pIC50 in test [1] was 5.60 to 6.30; in test [2] it was 6.30 to 7.30; in test [3] it was 5.60 to 6.30; in test [4] it was 6.30 to 7.30; in test [5], not below 7.30; in test [6], 6.30 to 7.30.
With `COc1cc(N2CCC(N3CCN(C)CC3)CC2)ccc1Nc1nc(Nc2ccc3nccnc3c2N(C)S(C)(=O)=O)c2cc[nH]c2n1` [II-2-22], the pIC50 in test [1] was 6.30 to 7.30; in test [2], 6.30 to 7.30; in test [3] it was 5.60 to 6.30; in test [4], not below 7.30; in test [5], not below 7.30; in test [6], 6.30 to 7.30.
`COc1ccc(N2CCC(O)CC2)cc1Nc1nc(Nc2ccc3nccnc3c2N(C)S(C)(=O)=O)c2cc[nH]c2n1` [II-2-23]: the pIC50 in test [1] is 6.30 to 7.30; in test [2], not below 7.30; in test [3] it was 6.30 to 7.30; in test [4], 6.30 to 7.30; in test [5] it was not below 7.30; in test [6], 6.30 to 7.30.
